# From paper doi:10.1101/2022.07.25.501481v1 (biorxiv, 2022)
# Biological target: T1, BT4193 (Bacteroides thetaiotaomicron, UniProt Q8A028)
# T1 sequence (Q8A028 20-736): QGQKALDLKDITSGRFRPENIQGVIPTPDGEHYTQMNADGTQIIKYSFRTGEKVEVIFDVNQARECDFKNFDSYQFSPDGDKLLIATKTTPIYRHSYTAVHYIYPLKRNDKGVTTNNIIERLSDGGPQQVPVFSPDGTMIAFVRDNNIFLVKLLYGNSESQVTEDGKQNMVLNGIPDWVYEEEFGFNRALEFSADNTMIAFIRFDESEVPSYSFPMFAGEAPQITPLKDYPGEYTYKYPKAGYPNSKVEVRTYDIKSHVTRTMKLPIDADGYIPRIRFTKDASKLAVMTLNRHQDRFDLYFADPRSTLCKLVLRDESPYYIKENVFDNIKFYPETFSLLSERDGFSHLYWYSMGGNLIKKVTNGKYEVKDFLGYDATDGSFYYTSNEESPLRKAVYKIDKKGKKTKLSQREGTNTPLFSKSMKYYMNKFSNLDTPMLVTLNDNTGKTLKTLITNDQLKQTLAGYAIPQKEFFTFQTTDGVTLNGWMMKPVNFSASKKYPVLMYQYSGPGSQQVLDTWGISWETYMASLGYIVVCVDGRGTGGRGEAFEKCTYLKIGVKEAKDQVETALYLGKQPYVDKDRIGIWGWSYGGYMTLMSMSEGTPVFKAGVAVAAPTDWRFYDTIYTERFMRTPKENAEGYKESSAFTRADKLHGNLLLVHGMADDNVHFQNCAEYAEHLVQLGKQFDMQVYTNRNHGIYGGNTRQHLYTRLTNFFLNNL
# Experiment: GP-AMC cleavage fluorescence, dose-response four-parameter fit
# Type: biochemical
row,IC50 [nM],Compound
1,445 ± 23,CC#CCn1c(N2CCC[C@@H](N)C2)nc2c1c(=O)n(Cc1nc(C)c3ccccc3n1)c(=O)n2C [linagliptin]
2,10.3 ± 0.7,N#C[C@@H]1C[C@@H]2C[C@@H]2N1C(=O)[C@@H](N)C12CC3CC(CC(O)(C3)C1)C2 [saxagliptin]
3,2150 ± 162,N[C@@H](CC(=O)N1CCn2c(nnc2C(F)(F)F)C1)Cc1cc(F)c(F)cc1F [sitagliptin]
4,12.4 ± 0.1,CC(C)[C@H](N)C(=O)N1CCC[C@H]1B(O)O [talabostat]
